From ChEMBL document CHEMBL5726787, “Compounds, compositions and methods” (2018)

Target: T1, Receptor-interacting serine/threonine-protein kinase 1 (Homo sapiens, UniProt Q13546)
T1 sequence (Q13546 whole entry): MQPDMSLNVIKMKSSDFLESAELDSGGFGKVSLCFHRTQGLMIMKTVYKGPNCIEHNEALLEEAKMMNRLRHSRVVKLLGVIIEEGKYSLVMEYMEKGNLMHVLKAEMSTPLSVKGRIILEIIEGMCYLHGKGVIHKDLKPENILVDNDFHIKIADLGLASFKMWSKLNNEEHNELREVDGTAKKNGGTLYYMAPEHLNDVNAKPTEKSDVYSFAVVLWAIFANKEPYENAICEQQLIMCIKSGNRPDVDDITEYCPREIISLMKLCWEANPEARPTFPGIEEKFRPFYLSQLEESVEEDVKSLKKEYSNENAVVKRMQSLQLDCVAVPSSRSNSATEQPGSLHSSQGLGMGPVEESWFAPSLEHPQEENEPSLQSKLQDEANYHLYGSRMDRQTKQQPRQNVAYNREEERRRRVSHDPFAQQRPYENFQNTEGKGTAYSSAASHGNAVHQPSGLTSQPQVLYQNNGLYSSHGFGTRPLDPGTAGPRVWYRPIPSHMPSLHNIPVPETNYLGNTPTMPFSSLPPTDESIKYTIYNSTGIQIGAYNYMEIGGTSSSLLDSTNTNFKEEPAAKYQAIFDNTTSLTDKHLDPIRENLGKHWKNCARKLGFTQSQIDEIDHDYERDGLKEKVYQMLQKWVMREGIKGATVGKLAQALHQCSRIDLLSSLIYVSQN
Assay: […]: Test compounds were diluted in DMSO and 0.1 μL of solution was dispensed to each well of a 384-well white solid microplate. The assay buffer was 50 mM HEPES pH 7.5, 50 mM NaCl, 30 mM MgCl2. The buffer was supplemented with 0.02% CHAPS, 0.01% of Pluronic F127, 0.1 mg/mL BSA and 1 mM DTT. MnCl2, 5 mM, was included in the assay buffer on the day of the experiment. […] 5 μL of enzyme and 5 μL of ATP were added to the plate at twice the final assay concentration and incubated at room temperature for 3 hours. Following this reaction, 10 μL of ADP-Glo reagent (Promega) was added to each well and incubated for 40 min at room temperature. This stops the kinase reaction and depletes any remaining ATP. 20 μL of ADP-Glo detection reagent was then added to each well and incubated at room temperature for at least 15 minutes. The detection reagent converts ADP to ATP and introduces luciferase and luciferin to detect ATP. The luminescence is then measured with the Envision (PerkinElmer) plate reader. Test compound inhibition was expressed as percent inhibition of internal assay controls. For concentration response curves, normalized data is fit and IC50 determined using XL-fit (IDBS) for Excel. The IC50 were averaged to determine a mean value, for a minimum of two independent experiments.

Work on `CN1C(=O)C(NC(=O)c2nnc(Cc3ccccc3)[nH]2)C[C@@H](F)c2ccccc21` (some centres not stated) yielded an IC50 of 0.1 to 1000 nM.
`CN1C(=O)C(NC(=O)c2nnc(Cc3ccccc3)[nH]2)C[C@H](F)c2ccccc21` (some centres not stated) showed an IC50 of 0.1 to 1000 nM.
